The values below come from article PMC1241434 (Environmental Health Perspectives, 2003).

In data set [1] the target is T1, human androgen receptor (hAR) (Homo sapiens, UniProt P10275).
T1 sequence (P10275 1-920): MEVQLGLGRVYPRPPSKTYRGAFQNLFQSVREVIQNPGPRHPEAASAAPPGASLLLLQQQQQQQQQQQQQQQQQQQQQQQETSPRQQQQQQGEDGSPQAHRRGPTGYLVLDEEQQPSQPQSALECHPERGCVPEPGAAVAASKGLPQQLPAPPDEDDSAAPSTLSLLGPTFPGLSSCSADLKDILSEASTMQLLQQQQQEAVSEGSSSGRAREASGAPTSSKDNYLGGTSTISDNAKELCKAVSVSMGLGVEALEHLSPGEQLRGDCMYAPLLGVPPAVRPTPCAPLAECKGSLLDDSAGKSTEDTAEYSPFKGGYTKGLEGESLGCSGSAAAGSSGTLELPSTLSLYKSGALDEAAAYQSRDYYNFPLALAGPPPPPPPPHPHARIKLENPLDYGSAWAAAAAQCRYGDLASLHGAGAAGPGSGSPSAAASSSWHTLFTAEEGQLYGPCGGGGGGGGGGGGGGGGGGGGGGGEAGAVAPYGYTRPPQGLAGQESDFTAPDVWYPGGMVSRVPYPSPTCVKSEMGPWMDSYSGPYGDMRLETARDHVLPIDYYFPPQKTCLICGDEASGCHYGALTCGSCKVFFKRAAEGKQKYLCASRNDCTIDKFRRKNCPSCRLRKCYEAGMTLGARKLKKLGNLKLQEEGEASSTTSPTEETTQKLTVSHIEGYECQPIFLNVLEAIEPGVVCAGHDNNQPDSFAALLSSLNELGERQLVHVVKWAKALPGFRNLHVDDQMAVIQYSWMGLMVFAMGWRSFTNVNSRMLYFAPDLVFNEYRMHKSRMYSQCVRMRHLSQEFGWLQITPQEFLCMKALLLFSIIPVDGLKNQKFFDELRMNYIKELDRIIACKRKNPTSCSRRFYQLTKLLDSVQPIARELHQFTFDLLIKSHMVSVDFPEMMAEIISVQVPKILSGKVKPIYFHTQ
Nature of the data set: hAR reporter gene assay in CHO cells, agonist mode. Conditions: for hAR-mediated transcriptional activity (androgenicity): 10^-5 M, absence of DHT. For orientation: Reporter assays use an easily measured gene product as a stand-in for the process of interest.

For data set [2], the target named is T2, human estrogen receptor-alpha (hER alpha) (Homo sapiens, UniProt P03372).
T2 sequence (P03372 1-595): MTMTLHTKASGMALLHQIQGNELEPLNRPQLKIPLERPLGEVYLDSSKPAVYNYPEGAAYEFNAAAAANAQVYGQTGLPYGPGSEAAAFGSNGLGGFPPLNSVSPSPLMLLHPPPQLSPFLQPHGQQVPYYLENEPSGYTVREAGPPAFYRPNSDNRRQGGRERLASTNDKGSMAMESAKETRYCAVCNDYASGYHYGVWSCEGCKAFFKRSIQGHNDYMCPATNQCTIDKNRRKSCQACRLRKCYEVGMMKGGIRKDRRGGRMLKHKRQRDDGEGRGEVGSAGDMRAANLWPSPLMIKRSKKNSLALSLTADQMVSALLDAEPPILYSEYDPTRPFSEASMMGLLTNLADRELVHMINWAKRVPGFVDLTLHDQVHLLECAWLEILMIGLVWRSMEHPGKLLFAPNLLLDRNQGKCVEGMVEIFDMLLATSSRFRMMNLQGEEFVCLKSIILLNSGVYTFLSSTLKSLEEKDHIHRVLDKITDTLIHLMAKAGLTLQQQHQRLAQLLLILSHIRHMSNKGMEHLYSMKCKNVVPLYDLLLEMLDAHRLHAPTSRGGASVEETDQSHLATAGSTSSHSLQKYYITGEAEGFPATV
Nature of the data set: hER alpha reporter gene assay in CHO cells, agonist mode. Conditions: for estrogenic activity of steroids: at the concentrations tested; for hER-mediated transcriptional activity (estrogenic activity): 10^-5 M, absence of E2.

The target of data set [3] is T2, human estrogen receptor-alpha (hER alpha). The data set is described as follows: hER alpha reporter gene assay in CHO cells, antagonist mode. Conditions: 10^-5 M, presence of 10-11 M E2, versus vehicle.
The next data set deals with T3, human AR (Homo sapiens, UniProt P10275).
T3 sequence (P10275 1-920): T1 sequence (P10275 1-920)
The data set is described as follows: Competitive binding assay for AR. The conditions noted are these: ratio of IC50 of mibolerone to that of test compound, mibolerone set at 100.

The target of another data set is T4, human ER (Homo sapiens, UniProt P03372).
T4 sequence (P03372 1-595): T2 sequence (P03372 1-595)
The data set is described as follows: Competitive binding assay for ER. Conditions: for RBA-E (relative binding affinity for hER): ratio of IC50 of DES to that of test compound, DES set at 100.

The next data set has as its system CHO-K1 cells. The data set is described as follows: Renilla luciferase activity as toxicity control in transfected CHO cells. Conditions: conditions of the hAR antagonist assay, data not shown.
The target of data set [4] is T1, human androgen receptor (hAR). The data set is described as follows: hAR reporter gene assay in CHO cells, antagonist mode. Conditions: for inhibition of hAR-mediated transcriptional activity by DHT: 10^-5 M, presence of 10^-10 M DHT.
The next data set has as its system estrogenic activity. The conditions noted are these: 10^-5 M; ref Nishikawa et al. (2000); cited from earlier work.

The structures appear in SMILES notation.

In the case of `C[C@]12CC[C@@H]3c4ccc(O)cc4CC[C@H]3[C@@H]1CCC2=O` [estrone, reference compound], in data set [1] (at the concentrations tested), the “androgenic activity of steroids” value was “only low activity”.

As to `CC(=O)[C@H]1CC[C@H]2[C@@H]3CCC4=CC(=O)CC[C@]4(C)[C@H]3CC[C@]12C` [progesterone, reference compound], the “estrogenic activity of steroids” value in data set [2] is “inactive”.

As to `C[C@]12CC[C@H]3[C@@H](CCC4=CC(=O)CC[C@@]43C)[C@@H]1CC[C@@H]2O` [testosterone, reference compound], in data set [2], the “estrogenic activity of steroids” value is “positive by this assay at high concentrations”.

Regarding `Clc1ccc(C(c2ccccc2Cl)C(Cl)(Cl)Cl)cc1` (centres unmarked) [o,p-DDT, 1,1,1-trichloro-2-(p-chlorophenyl)-2-(o-chlorophenyl)ethane, reference compound], in data set [3], the “effect on estrogenic activity of E2 (antiestrogenic activity)” value (“effect on estrogenic activity of E2” for short) is listed as “did not show any significant differences”. Also, in data set [2], the “hER-mediated transcriptional activity (estrogenic activity)” value (“hER-mediated transcriptional activity” below) is given as “potent estrogenic activity”.

For the compound `Nc1ccc(Oc2c(Cl)cc(Cl)cc2Cl)cc1` [CNP-amino, 2,4,6-trichlorophenyl-4-aminophenyl ether], the “hAR-mediated transcriptional activity (androgenicity)” value in data set [1] is reported as “no androgenicity”. For the same compound, the “RBA-A (relative binding affinity for hAR)” value on human AR is 0.33. Also, in data set [3], the “effect on estrogenic activity of E2” value is recorded as “did not show any significant differences”. In addition, at human ER, the “RBA-E (relative binding affinity for hER)” value was determined as 0.036. For the same compound, the “hER-mediated transcriptional activity” value in data set [2] is reported as “potent estrogenic activity”. The “estrogenic activity, fold higher than p,p-DDT” value in data set [2] (versus p,p-DDT) is “about 4 fold”. In addition, the “effect on cellular viability (Renilla luciferase activity)” value in the data set on CHO-K1 cells is “did not affect the cellular viability”. The “inhibition of hAR-mediated transcriptional activity by DHT” value in data set [4] is given as “inhibited”. In data set [4] (ratio to CNP), the “antiandrogen intensity relative to CNP” value is given as “more than 1/10”.

Take `O=[N+]([O-])c1ccc(Oc2c(Cl)cc(Cl)cc2Cl)cc1` [CNP, 2,4,6-trichlorophenyl-4-nitrophenyl ether]: the “hAR-mediated transcriptional activity (androgenicity)” value in data set [1] is recorded as “weakly androgenic”. Moreover, the “RBA-A (relative binding affinity for hAR)” value at human AR came out at 8.64. For the same compound, the “effect on estrogenic activity of E2” value in data set [3] is on record as “did not show any significant differences”. Further, on human ER, the “effect on the binding of E2 to hER” value is recorded as “very low” and the “RBA-E (relative binding affinity for hER)” value was under 0.0009. Further, the “estrogenic activity in yeast two-hybrid assay” value in the data set with estrogenic activity is given as “negative”. In data set [2], the “hER-mediated transcriptional activity” value is on record as “potent estrogenic activity”. In addition, the “effect on cellular viability (Renilla luciferase activity)” value in the data set with CHO-K1 cells was “did not affect the cellular viability”. Also, the “inhibition of hAR-mediated transcriptional activity by DHT” value in data set [4] is given as “inhibited”. The “antiandrogenic potency, fold higher than o,p-DDT” value in data set [4] (IC50 ratio versus o,p-DDT) is about 10 fold. Also, the “antiandrogenic potency, fold higher than p,p-DDE” value in data set [4] (IC50 ratio versus p,p-DDE) was about 14 fold. For the same compound, the “antiandrogenic potency, fold higher than vinclozolin” value in data set [4] (IC50 ratio versus vinclozolin) was “approximately 3.5 fold”.
